Clc1cc(Cl)c(OCCBr)c(Cl)c1
solubility (mole fraction)
Details	in acetone	in acetonitrile	in ethanol	in isopropanol	in methanol	in n-heptane	in n-propanol
278.1 K	–	–	–	0.00574	0.00356	–	0.0098
278.2 K	0.094	0.0146	0.00698	–	–	0.0388	–
283.1 K	0.105	–	0.00794	–	0.00448	0.047	–
283.2 K	–	0.0176	–	0.00688	–	–	0.0105
288.1 K	0.117	–	–	–	0.00563	0.057	–
288.2 K	–	0.0211	0.0086	0.00825	–	–	0.0113
293.1 K	0.131	0.0253	0.00968	0.0099	–	0.069	–
293.2 K	–	–	–	–	0.0071	–	0.0121
298.1 K	–	–	0.0108	–	–	0.0839	0.013
298.2 K	0.146	0.0304	–	0.0118	0.00892	–	–
303.1 K	–	0.0364	0.012	–	–	–	–
303.2 K	0.163	–	–	0.0142	0.0112	0.102	0.014
308.1 K	–	–	–	–	0.0141	–	0.0151
308.2 K	0.182	0.0437	0.0134	0.017	–	0.123	–
313.1 K	0.203	–	–	0.0204	–	0.15	–
313.2 K	–	0.0525	0.0149	–	0.0177	–	0.0162
318.1 K	–	–	0.0166	0.0245	–	–	0.0174
318.2 K	0.226	0.063	–	–	0.0223	0.182	–
323.1 K	–	–	–	–	0.0281	0.22	–
323.2 K	0.253	0.076	0.0186	0.0294	–	–	0.0187

From BigSolDB 2.1
